Measurements as given in patent US9468593B2, “Oral composition” (KABUSHIKI KAISHA SANGI, priority 2012, dated 2016).

Assay: Test for liquid permeation through dentinal tubules (Pashley's protocol, split chamber device)
Parameters: species or system human
Conditions: component blended singly
Protocol: A healthy human evulsion tooth was used to cut the tooth into sections in such a manner that dentin and dentinal tubules were exposed. The resulting sections were polished at a thickness of about 500 μm and were subjected to ultrasonic cleaning. […] The resulting solution was used as a test solution. Then, the sections whose portions other than the test surface had been masked were soaked in the test solution at 37° C. for 9 min per day. This soaking treatment was conducted for 5 days.
In addition, a test for liquid permeation through dentinal tubules was conducted. […] A dentin section was interposed between an inlet chamber and an outlet chamber of the above device. Then, the test solution was placed in the inlet chamber to treat the dentin surface. In addition, a Ringer's solution was injected using pressure in the inlet chamber before and after the treatment. By measuring the amount of flow through the outlet chamber, the liquid permeation through dentinal tubules was evaluated.
The effect of inhibiting liquid permeation through dentinal tubules of each test solution was determined as follows: first, a difference between the amount of flow of the Ringer's solution before and that after the treatment was determined; and a liquid permeation inhibition rate of the dentinal tubules was then calculated in percent units by using the following equation. […]

Structure (SMILES): O.O.O=P([O-])([O-])O.[Ca+2] [calcium monohydrogen phosphate dihydrate]
- ability to occlude dentinal tubules of a tooth: had an ability to occlude dentinal tubules of a tooth
